Measured values as given in patent US8916575B2, “Quinazoline derivatives for the treatment of viral infections and further diseases” (Janssen R&D Ireland, priority 2011, dated 2014).

Legend:
human TLR7 = biological target: T1, human TLR7 (Homo sapiens, UniProt Q9NYK1); test: TLR7 wild type NFκB-luc cellular reporter assay; type: cell-based; set-up: unit not given here; conditions: HEK293 NFκB-luc reporter, 6 hours incubation; second part of table
T1 construct: expressed in transfected cells; host or cells: HEK293
T1 sequence (Q9NYK1 27-1049): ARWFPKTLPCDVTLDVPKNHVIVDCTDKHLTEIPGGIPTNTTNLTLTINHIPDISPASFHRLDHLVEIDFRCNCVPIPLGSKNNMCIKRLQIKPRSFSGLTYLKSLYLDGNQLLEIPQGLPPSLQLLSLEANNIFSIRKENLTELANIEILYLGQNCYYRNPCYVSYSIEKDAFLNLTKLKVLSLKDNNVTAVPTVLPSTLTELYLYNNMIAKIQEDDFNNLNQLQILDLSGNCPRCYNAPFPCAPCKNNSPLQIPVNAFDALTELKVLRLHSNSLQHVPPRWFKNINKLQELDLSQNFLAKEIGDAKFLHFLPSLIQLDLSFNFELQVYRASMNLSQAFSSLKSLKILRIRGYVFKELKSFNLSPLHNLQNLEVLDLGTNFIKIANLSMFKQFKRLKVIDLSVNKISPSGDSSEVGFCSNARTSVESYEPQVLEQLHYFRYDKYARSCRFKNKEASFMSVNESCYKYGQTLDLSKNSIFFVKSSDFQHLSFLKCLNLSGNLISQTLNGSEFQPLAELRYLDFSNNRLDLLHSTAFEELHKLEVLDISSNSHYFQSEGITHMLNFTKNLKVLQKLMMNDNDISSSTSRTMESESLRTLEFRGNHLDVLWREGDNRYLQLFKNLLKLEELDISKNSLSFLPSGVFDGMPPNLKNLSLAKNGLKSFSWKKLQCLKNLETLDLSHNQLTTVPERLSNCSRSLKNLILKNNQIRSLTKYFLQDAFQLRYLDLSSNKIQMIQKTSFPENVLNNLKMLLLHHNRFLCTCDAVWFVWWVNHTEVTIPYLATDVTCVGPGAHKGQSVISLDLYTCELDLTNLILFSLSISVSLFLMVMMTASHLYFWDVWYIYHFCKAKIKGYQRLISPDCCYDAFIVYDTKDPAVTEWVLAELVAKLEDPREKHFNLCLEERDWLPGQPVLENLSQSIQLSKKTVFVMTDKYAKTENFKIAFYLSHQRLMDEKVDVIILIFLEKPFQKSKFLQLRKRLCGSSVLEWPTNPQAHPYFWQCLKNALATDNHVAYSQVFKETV

human TLR8 = biological target: T2, human TLR8 (Homo sapiens, UniProt Q9NR97); test: TLR8 wild type NFκB-luc cellular reporter assay; type: cell-based; set-up: unit not given here; conditions: HEK293 NFκB-luc reporter, 6 hours incubation; second part of table
T2 construct: expressed in transfected cells; host or cells: HEK293
T2 sequence (Q9NR97 27-1041): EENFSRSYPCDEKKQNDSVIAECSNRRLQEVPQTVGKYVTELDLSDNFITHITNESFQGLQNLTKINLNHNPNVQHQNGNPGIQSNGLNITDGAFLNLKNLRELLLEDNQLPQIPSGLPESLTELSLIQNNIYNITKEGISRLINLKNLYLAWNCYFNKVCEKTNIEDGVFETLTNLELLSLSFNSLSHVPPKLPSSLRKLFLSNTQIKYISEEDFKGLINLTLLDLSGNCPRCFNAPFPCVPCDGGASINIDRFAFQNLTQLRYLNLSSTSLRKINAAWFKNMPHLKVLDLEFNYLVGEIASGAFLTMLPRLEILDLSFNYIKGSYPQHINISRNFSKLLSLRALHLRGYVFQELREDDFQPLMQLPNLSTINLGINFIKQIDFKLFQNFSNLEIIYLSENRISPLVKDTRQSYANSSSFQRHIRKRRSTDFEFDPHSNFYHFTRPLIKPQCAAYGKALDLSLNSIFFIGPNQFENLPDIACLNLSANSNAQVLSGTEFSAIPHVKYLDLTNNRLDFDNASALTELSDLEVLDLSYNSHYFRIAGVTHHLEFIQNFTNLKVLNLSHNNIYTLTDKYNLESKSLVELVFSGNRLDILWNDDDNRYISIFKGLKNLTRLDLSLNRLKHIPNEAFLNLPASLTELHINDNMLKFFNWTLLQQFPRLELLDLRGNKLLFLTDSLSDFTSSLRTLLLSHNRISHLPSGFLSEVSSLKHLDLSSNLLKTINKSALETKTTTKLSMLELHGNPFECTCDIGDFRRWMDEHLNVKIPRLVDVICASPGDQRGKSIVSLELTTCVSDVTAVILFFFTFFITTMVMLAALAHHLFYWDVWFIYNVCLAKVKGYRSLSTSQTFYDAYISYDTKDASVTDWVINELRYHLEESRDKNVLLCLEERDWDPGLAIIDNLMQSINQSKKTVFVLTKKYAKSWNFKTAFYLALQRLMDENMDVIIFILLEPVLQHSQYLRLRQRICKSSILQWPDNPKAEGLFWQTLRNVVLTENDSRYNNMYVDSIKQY
Method in brief: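 HEK293 cells transiently transfected with wild-type or second-LRR-deletion (dIRR2) TLR7/TLR8 plasmid plus NFκB-luc, 24 h; compound added for 6 h at 37 °C. Luciferase read-out, quadruplicate dose responses. LEC = lowest concentration giving effect at least two-fold above assay SD.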

TLR7-wt (LEC) (human TLR7)	TLR8-wt (LEC) (human TLR8)	Structure (SMILES)
2.01	0.22	CCC[C@@H](CO)Nc1nc(N)nc2cc(C(=O)OC)ccc12 [Compound 86]
1.84	2.22	CCCCNc1nc(N)nc2cc(OC)c(OCc3ccccc3)cc12 [Compound 89]

Continued, compound first:

Structure (SMILES)	TLR7-wt (LEC) (human TLR7)	TLR8-wt (LEC) (human TLR8)
CCCCNc1nc(N)nc2ccc(Br)cc12 [Compound 85]	0.51	0.10
CCCC[C@@H](CCO)Nc1nc(N)nc2cc(OC)ccc12 [Compound 87]	0.16	0.16
CCCC[C@@H](CCO)Nc1nc(N)nc2ccc(OC)cc12 [Compound 88]	1.85	2.81
